US20120202701A1, “AN ANTIBODY-GLYCAN COMPLEX TARGETING THE DISIALYL CORE II AND SIALYL LEWIS X STRUCTURES, AND USES THEREOF INVOLVING ANALYSIS OF STEM CELLS OR CANCER CELLS” (GLYKOS FINLAND OY, priority 2009, published 2012)

System: mAb CHO-131
Assay: Glycan microarray analysis (Consortium for Functional Glycomics, printed array version 4.0), glycan binding of mAb CHO-131
Conditions: glycan microarray, as described
Description: (§1) mAb CHO-131 was purchased from R&D Systems (MAB996). mAb CSLEX was purchased form BD Biosciences (551344). Glycan microarray analysis was carried out by the Consortium for Functional Glycomics. Glycan microarrays were printed as described (Blixt 2004). Version 4.0 of the printed glycan array was used for analysis. Binding analysis was performed at 50 μg/ml of antibody. Data are reported as average RFU of 6 replicates after removal of highest and lowest values.

Row | binding to CHO-131 antibody, in words | Structure (SMILES)
1 | some binding | CC(=O)N[C@H]1[C@H](OCCCN)O[C@H](CO)[C@@H](O)[C@@H]1O[C@@H]1O[C@H](C(=O)O)[C@@H](O)[C@H](O)[C@H]1O [Chart Number 299, GlcAb1-3GlcNAcb-Sp8, reference compound]

Same assay, conditions: mAb CHO-131 at 50 μg/ml; average RFU of 6 replicates after removal of highest and lowest values

Row | RFU | Structure (SMILES)
2 | 256 RFU | CC(=O)N[C@H]1[C@H](OCCCN)O[C@H](COS(=O)(=O)O)[C@@H](O[C@@H]2O[C@H](CO)[C@H](O)[C@H](O[C@]3(C(=O)O)C[C@H](O)[C@@H](NC(C)=O)[C@H]([C@H](O)[C@H](O)CO)O3)[C@H]2O)[C@@H]1O[C@@H]1O[C@@H](C)[C@@H](O)[C@@H](O)[C@@H]1O [compound 241]
3 | 243 RFU | CC(=O)N[C@H]1[C@H](OCCCN)O[C@H](COS(=O)(=O)O)[C@@H](O[C@@H]2O[C@H](CO[C@]3(C(=O)O)C[C@H](O)[C@@H](NC(C)=O)[C@H]([C@H](O)[C@H](O)CO)O3)[C@H](O)[C@H](O)[C@H]2O)[C@@H]1O [compound 256]
4 | 138 RFU | C[C@@H]1O[C@@H](O[C@H]2[C@H](O[C@@H]3O[C@H](CO)[C@H](O)[C@H](O)[C@H]3O)[C@@H](COS(=O)(=O)O)OC(OCCN)[C@@H]2O)[C@@H](O)[C@H](O)[C@@H]1O (stereo partly shown) [compound 281]
5 | 271 RFU | CC(=O)N[C@H]1[C@H](OCCN)O[C@H](CO)[C@@H](O[C@@H]2O[C@H](CO)[C@H](O)[C@H](O[C@]3(C(=O)O)C[C@H](O)[C@@H](NC(C)=O)[C@H]([C@H](O)[C@H](O)COC(C)=O)O3)[C@H]2O)[C@@H]1O [compound 323]
6 | 138 RFU | CC(=O)N[C@H]1[C@H](OCCN)O[C@H](CO)[C@@H](O[C@@H]2O[C@H](CO)[C@H](O)[C@H](O[C@@H]3O[C@H](COS(=O)(=O)O)[C@@H](O)[C@H](O)[C@H]3NC(C)=O)[C@H]2O)[C@@H]1O [compound 351]
7 | 1773 RFU | CC(=O)N[C@H]1C(OCCN)O[C@H](COS(=O)(=O)O)[C@@H](O)[C@@H]1O[C@@H]1O[C@H](COS(=O)(=O)O)[C@H](O)[C@H](O)[C@H]1O (stereo partly shown) [compound 440]

Second part, the compound before the results:

Row | Structure (SMILES) | RFU
8 | NCCCO[C@@H]1O[C@H](COS(=O)(=O)O)[C@@H](O[C@@H]2O[C@H](CO)[C@H](O)[C@H](OS(=O)(=O)O)[C@H]2O)[C@H](O)[C@H]1O [compound 25] | 903 RFU
9 | CC(=O)N[C@H]1[C@H](OCCN)O[C@H](COS(=O)(=O)O)[C@@H](O[C@@H]2O[C@H](CO)[C@H](O)[C@H](OS(=O)(=O)O)[C@H]2O)[C@@H]1O [compound 31] | 266 RFU
10 | CC(=O)N[C@H]1[C@H](OCCCN)O[C@H](COS(=O)(=O)O)[C@@H](O[C@@H]2O[C@H](CO)[C@H](O)[C@H](OS(=O)(=O)O)[C@H]2O)[C@@H]1O [compound 32] | 584 RFU
11 | NCCCO[C@@H]1O[C@H](CO)[C@H](O)[C@H](OS(=O)(=O)O)[C@H]1O [compound 35] | 345 RFU
12 | CC(=O)N[C@H]1[C@H](OCCN)O[C@H](CO)[C@@H](O[C@@H]2O[C@H](COS(=O)(=O)O)[C@H](OS(=O)(=O)O)[C@H](O)[C@H]2O)[C@@H]1O [compound 36] | 427 RFU
13 | NCCCO[C@@H]1O[C@H](COS(=O)(=O)O)[C@@H](O[C@@H]2O[C@H](COS(=O)(=O)O)[C@H](O)[C@H](O)[C@H]2O)[C@H](O)[C@H]1O [compound 42] | 505 RFU
14 | NCCO[C@@H]1O[C@H](COS(=O)(=O)O)[C@@H](O[C@@H]2O[C@H](CO)[C@H](O)[C@H](O)[C@H]2O)[C@H](O)[C@H]1O [compound 146] | 148 RFU
15 | NCCCO[C@H]1O[C@H](C(=O)O)[C@@H](O)[C@H](O)[C@H]1O [compound 192] | 227 RFU
16 | NCCCO[C@@H]1O[C@H](C(=O)O)[C@@H](O)[C@H](O)[C@H]1O [compound 193] | 274 RFU
17 | CC(=O)N[C@H]1C(OCCCN)O[C@H](COS(=O)(=O)O)[C@@H](O[C@@H]2O[C@H](CO)[C@H](O)[C@H](OS(=O)(=O)O)[C@H]2O)[C@@H]1O[C@@H]1O[C@@H](C)[C@@H](O)[C@@H](O)[C@@H]1O (stereo partly shown) [compound 210] | 403 RFU
18 | C[C@@H]1O[C@@H](O[C@H]2[C@H](O[C@H]3[C@H](O)[C@@H](O)C(OCCN)O[C@@H]3COS(=O)(=O)O)O[C@H](COS(=O)(=O)O)[C@H](O)[C@@H]2O)[C@@H](O)[C@H](O)[C@@H]1O (stereo partly shown) [compound 213] | 1100 RFU

System: mAb CSLEX
Assay: Glycan microarray analysis (Consortium for Functional Glycomics, printed array version 4.0), glycan binding of mAb CSLEX
Conditions: mAb CSLEX at 50 μg/ml; average RFU of 6 replicates after removal of highest and lowest values
Description: as §1

Row | RFU | Structure (SMILES)
19 | 53 RFU | CC(=O)N[C@H]1[C@H](O[C@@H]2[C@H](O[C@]3(C(=O)O)C[C@H](O)[C@@H](NC(C)=O)[C@H]([C@H](O)[C@@H](CO)O[C@]4(C(=O)O)C[C@H](O)[C@@H](NC(C)=O)[C@H]([C@H](O)[C@@H](CO)O[C@]5(C(=O)O)C[C@H](O)[C@@H](NC(C)=O)[C@H]([C@H](O)[C@@H](CO)O[C@]6(C(=O)O)C[C@H](O)[C@@H](NC(C)=O)[C@H]([C@H](O)[C@H](O)CO)O6)O5)O4)O3)[C@@H](O)[C@H](O[C@H]3[C@H](O)[C@@H](O)[C@H](OCCN)O[C@@H]3CO)O[C@@H]2CO)O[C@H](CO)[C@H](O)[C@@H]1O [compound 215]
20 | 424 RFU | CC(=O)N[C@H]1[C@H](OCCN)O[C@H](CO)[C@@H](O[C@@H]2O[C@H](CO[C@]3(C(=O)O)C[C@H](O)[C@@H](NC(C)=O)[C@H]([C@H](O)[C@H](O)CO)O3)[C@H](O)[C@H](O)[C@H]2O)[C@@H]1O [compound 257]
21 | 45 RFU | CC(=O)N[C@H]1[C@H]([C@H](O)[C@H](O)CO)O[C@@](OC[C@H]2O[C@@H](O[C@H]3[C@H](O)[C@@H](O)[C@H](OCCN)O[C@@H]3CO)[C@H](O)[C@@H](O)[C@H]2O)(C(=O)O)C[C@@H]1O [compound 261]
22 | 29 RFU | CC(=O)N[C@H]1[C@H](O[C@H]2[C@@H](O)[C@@H](CO)O[C@@H](O[C@@H]3[C@@H](NC(C)=O)[C@H](OCCN)O[C@H](CO)[C@H]3O[C@@H]3O[C@@H](C)[C@@H](O)[C@@H](O)[C@@H]3O)[C@@H]2O)O[C@H](CO)[C@@H](O[C@@H]2O[C@@H](C)[C@@H](O)[C@@H](O)[C@@H]2O)[C@@H]1O[C@@H]1O[C@H](CO)[C@H](O)[C@H](O)[C@H]1O [compound 266]
23 | 29 RFU | CC(=O)NC1C(OCCCN)OC(COC2(C(=O)O)CC(O)C(NC(C)=O)C(C(O)C(O)CO)O2)C(O)C1O (stereo not shown) [compound 267]
24 | 46 RFU | CC(=O)N[C@H]1[C@H](OCCCN)O[C@H](CO)[C@@H](O[C@@H]2O[C@H](CO)[C@H](O)[C@H](O[C@@H]3O[C@H](CO)[C@H](O)[C@H](O)[C@H]3O)[C@H]2O)[C@@H]1O [compound 291]
25 | 30 RFU | CC(=O)N[C@H]1[C@H](OCCN)O[C@H](CO)[C@@H](O[C@@H]2O[C@H](CO[C@H]3O[C@H](CO)[C@@H](O[C@@H]4O[C@H](CO)[C@H](O)[C@H](O)[C@H]4O)[C@H](O)[C@H]3NC(C)=O)[C@H](O)[C@H](O)[C@H]2O)[C@@H]1O [compound 295]

Continued, compound first:

Row | Structure (SMILES) | RFU
26 | CC(=O)N[C@H]1[C@H](OCCN)O[C@H](CO)[C@@H](O[C@@H]2O[C@H](CO)[C@H](O)[C@H](O[C@H]3O[C@H](CO)[C@H](O)[C@H](O)[C@H]3NC(C)=O)[C@H]2O[C@@H]2O[C@@H](C)[C@@H](O)[C@@H](O)[C@@H]2O)[C@@H]1O [compound 82] | 30 RFU
27 | CC(=O)N[C@H]1[C@H](O[C@H]2[C@@H](O)[C@@H](CO)O[C@H](OCCCN)[C@@H]2NC(C)=O)O[C@H](CO)[C@H](O)[C@@H]1O [compound 91] | 56 RFU
28 | CC(=O)NC1C(O)CC(OC2C(O)C(OC3C(CO)OC(OCCN)C(O)C3O)OC(CO)C2OC2OC(CO)C(O)C(OC3OC(CO)C(O)C(O)C3O)C2NC(C)=O)(C(=O)O)OC1C(O)C(O)CO (stereo not shown) [compound 135] | 28 RFU
29 | CC(=O)N[C@H]1[C@H](O[C@@H]2[C@H](O)[C@@H](O)[C@H](O[C@H]3[C@H](O)[C@@H](O)[C@H](OCCCN)O[C@@H]3CO)O[C@@H]2CO)O[C@H](CO)[C@H](O)[C@@H]1O[C@@H]1O[C@H](CO)[C@H](O)[C@H](O)[C@H]1O [compound 136] | 58 RFU
30 | NCCCO[C@@H]1O[C@H](CO)[C@H](O)[C@H](O[C@@H]2O[C@H](CO)[C@H](O)[C@H](O)[C@H]2O)[C@H]1O [compound 137] | 37 RFU
31 | CC(=O)N[C@H]1[C@H](O[C@@H]2[C@H](O)[C@@H](O)[C@H](O[C@H]3[C@H](O[C@@H]4O[C@@H](C)[C@@H](O)[C@@H](O)[C@@H]4O)[C@@H](NC(C)=O)[C@H](OCCN)O[C@@H]3CO)O[C@@H]2CO)O[C@H](CO)[C@@H](O[C@@H]2O[C@H](CO)[C@H](O)[C@H](O)[C@H]2O)[C@@H]1O[C@@H]1O[C@@H](C)[C@@H](O)[C@@H](O)[C@@H]1O [compound 144] | 28 RFU
32 | CC(=O)N[C@H]1[C@H](O[C@H]2[C@@H](O)[C@@H](CO)O[C@@H](O[C@H]3[C@H](O)[C@@H](O)[C@H](OCCN)O[C@@H]3CO)[C@@H]2O)O[C@H](CO)[C@@H](O[C@@H]2O[C@H](CO)[C@H](O)[C@H](O)[C@H]2O)[C@@H]1O [compound 155] | 29 RFU
33 | CC(=O)N[C@H]1[C@H](OCCCN)O[C@H](CO)[C@@H](O[C@@H]2O[C@H](CO)[C@H](O)[C@H](O)[C@H]2O)[C@@H]1O [compound 161] | 34 RFU
34 | CC(=O)N[C@H]1[C@H](O[C@H]2[C@@H](O)[C@@H](CO)O[C@@H](OCCCN)[C@@H]2O)O[C@H](CO)[C@@H](O)[C@@H]1O [compound 171] | 106 RFU
35 | CC(=O)N[C@H]1[C@@H](OCCCN)O[C@H](CO[C@@H]2O[C@H](CO)[C@@H](O)[C@H](O)[C@H]2NC(C)=O)[C@H](O[C@@H]2O[C@H](CO)[C@@H](O)[C@H](O)[C@H]2NC(C)=O)[C@@H]1O [compound 177] | 29 RFU
36 | CC(=O)N[C@H]1[C@H](OCCCN)O[C@H](CO)[C@@H](O[C@@H]2O[C@H](CO)[C@H](O[C@@H]3O[C@H](CO)[C@@H](O)[C@H](O)[C@H]3NC(C)=O)[C@H](O)[C@H]2O)[C@@H]1O [compound 178] | 33 RFU
37 | NCCCO[C@@H]1O[C@H](CO[C@@H]2O[C@H](CO)[C@@H](O)[C@H](O)[C@H]2O)[C@@H](O)[C@H](O)[C@H]1O [compound 190] | 28 RFU
